≈ marks a conversion by molar mass, not a printed value. Read-outs that look alike come from different tables or passages of the source.
Columns and labels:
Gram-negative bacteria = conditions: cited from earlier work
Source text: This resistance arises from enzymatic inactivation by carbapenemases, as mentioned before, decreased cellular entry due to reduced expression of the outer membrane porins, and increased expression of efflux pumps.

[1] = tested on: Pseudomonas aeruginosa M13513; experiment: MIC by broth microdilution (CLSI); assay type: cell-based; conditions: two consecutive values shown where replicates varied by one dilution
Source text: Pseudomonas aeruginosa M13513 is a clinical isolate carrying the carbapenemase KPC-2 (blaKPC-2 gene). This strain was generously supplied by the Servicio Antimicrobianos, Instituto Nacional de Enfermedades Infecciosas (INEI)-ANLIS “Dr. Carlos G. Malbrán” in Buenos Aires, Argentina.
For antimicrobial testing, bacterial cultures were maintained in Cation-Adjusted Mueller–Hinton Broth (CAMHB), following Clinical and Laboratory Standards Institute (CLSI) guidelines.
The minimal inhibitory concentration was assessed using a standard microdilution assay, following CLSI guidelines. Mueller–Hinton Broth (Laboratorios Britania S.A., Buenos Aires, Argentina) supplemented with Ca^2+ (20–25 mg/L) and Mg^2+ (10–12.5 mg/L) was used for the assay. The bacterial strains tested included Pseudomonas aeruginosa PAO1, Pseudomonas aeruginosa M13513, and Staphylococcus aureus ATCC® 25923.

[2] = Pseudomonas aeruginosa, M13513, CAMHB, read-out: MIC

MIC [1, 2] | MIC ([1]; CAMHB) | Compound | also measured
1 µg/mL (≈ 2.14 µM) |  | NC[C@H]1O[C@H](O[C@H]2[C@H](O)[C@@H](O[C@H]3O[C@H](CO)[C@@H](O)[C@H](N)[C@H]3O)[C@H](N)C[C@@H]2N)[C@H](N)C[C@@H]1O [Tobramycin] | 
2 µg/mL (≈ 4.19 µM) |  | CNC(C)C1CCC(N)C(OC2C(N)CC(N)C(OC3OCC(C)(O)C(NC)C3O)C2O)O1 (centres unmarked) [Gentamicin] | 

The next lines start with the compound.

Compound | MIC [1, 2] | MIC ([1]; CAMHB) | also measured
polymyxin B |  |  | interaction with meropenem (Gram-negative bacteria): displays synergy with meropenem
C[C@@H](O)[C@H]1C(=O)N2C(C(=O)O)=C(SCCN=CN)C[C@H]12 [Imipenem] |  | 256/512 | 
C[C@@H](O)[C@H]1C(=O)N2C(C(=O)O)=C(S[C@@H]3CN[C@H](C(=O)N(C)C)C3)[C@H](C)[C@H]12 [Meropenem, meropenem] |  | 512/1024 | 
